From US12195427B2, “MASP-2 inhibitors and methods of use” (priority 2018, dated 2025)

How the values were obtained:
[1] = biological target: human α-thrombin (Homo sapiens (Human), UniProt P00734); experiment: Enzymatic Assay for Thrombin (Boc-VPR-AMC); type: biochemical
[2] = biological target: MASP-2 CCP2-SP (Homo sapiens (Human), UniProt O00187); experiment: MASP-2 co-crystallization, X-ray crystallography and structure analysis (H-bonds, van der Waals contacts); parameters: van der Waals contact distance, MASP-2 HIS 483 atom CD2 / van der Waals contact distance, MASP-2 HIS 483 atom NE2 / van der Waals contact distance, SER 654 C to compound atom / van der Waals contact distance, SER 654 O to compound atom / van der Waals contact distance, TRP 655 C to compound atom / van der Waals contact distance, MASP-2 GLY 528 atom CA / van der Waals contact distance TRP 655 atom CZ3 / van der Waals contact distance TRP 655 atom N / van der Waals contact distance TRP 655 atom CE3 / van der Waals contact distance GLY 656 atom C / van der Waals contact distance GLY 656 atom CA / van der Waals contact distance GLY 656 atom O / van der Waals contact distance, MASP-2 TYR 607 atom CD1 / van der Waals contact distance, MASP-2 PRO 606 atom O / d(C3,CA1) / d(CA1,N1)2 / d(H4,O1) / d(H4,O2) / d(O1,O2) / d(CA1,O2) / d(CA6,O1) / d(CA6,O2) / d(CA1,C5) / d(O2,H3) / d(N2,C2) / d(CA5,N2) / d(N2,C4) / d(N2,C6) / d(N2,CA3) / d(N2,O3) / d(O4,H2): unit not given beside the values; details: for H-bond distance to MASP-2 ASP 627 atom OD2: ASP 627 OD2; for H-bond distance to MASP-2 GLY 656 atom N: GLY 656 N; for H-bond distance to MASP-2 GLY 656 atom O: GLY 656 O; for H-bond distance to MASP-2 SER 654 atom O: SER 654 O; for H-bond distance to MASP-2 SER 657 atom OG: SER 657 OG; for van der Waals contact distance, MASP-2 HIS 483 atom CD2: Table A2-1; for Ligand-pharmacophore element distance, pharmacophore element C2 / Ligand-pharmacophore element distance, pharmacophore element C3 / Ligand-pharmacophore element distance, pharmacophore element C4 / Ligand-pharmacophore element distance, pharmacophore element C5 / Ligand-pharmacophore element distance, pharmacophore element C6 / Ligand-pharmacophore element distance, pharmacophore element C7 / Ligand-pharmacophore element distance, pharmacophore element CA1 / Ligand-pharmacophore element distance, pharmacophore element CA2 / Ligand-pharmacophore element distance, pharmacophore element CA3 / Ligand-pharmacophore element distance, pharmacophore element CA4 / Ligand-pharmacophore element distance, pharmacophore element CA5 / Ligand-pharmacophore element distance, pharmacophore element CA6: Table A4-1; for Pharmacophore protein distance to MET_658 (first MET_658 column): 6th residue column; for Pharmacophore protein distance to TRP_655: pharmacophore elements C6, CA3, O3, H1;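 for Ligand-pharmacophore element distance, pharmacophore element C2: distance from averaged pharmacophore element to bound ligand; missing value means element absent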;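 for Ligand-pharmacophore element distance, pharmacophore element C3: distance from averaged pharmacophore element to bound ligand; missing value means element absent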;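 for Ligand-pharmacophore element distance, pharmacophore element C4: distance from averaged pharmacophore element to bound ligand; missing value means element absent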;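 for Ligand-pharmacophore element distance, pharmacophore element C5: distance from averaged pharmacophore element to bound ligand; missing value means element absent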
Outline: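 Inhibitor complexes were obtained by soaking crystals of E. coli-expressed human MASP-2 CCP2-SP constructs, then flash-cooling in liquid nitrogen. Structures solved by molecular replacement (1Q3X search model) from synchrotron diffraction; where several poses existed, only one was analyzed, and nonbonded contacts listed can include H-bonds.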

[3] = biological target: MASP-2 (CCP1-CCP2-SP) (Homo sapiens (Human), UniProt O00187); experiment: Enzymatic Assay for MASP-2 (fluorogenic substrate); type: biochemical
[4] = system: Lectin Pathway; experiment: Lectin Pathway Activation Assay in Human Serum (mannan-coated ELISA, C3c detection); type: biochemical; details: 1% human serum
Protocol: Microtiter ELISA plate was coated with mannan from Saccharomyces cerevisiae (Sigma-Aldrich, M7504) for overnight at 4° C. in coating buffer [15 mM Na2CO3, 35 mM NaHCO3].

[5] = Table A2-9, ARG 630, AA atoms CG, CZ
[6] = Table A5-1 pharmacophore: distance between elements, S2/S1 region
[7] = Table A5-2 pharmacophore distance, S3/S4 region
[8] = Table A7-1, between pharmacophore elements of the bound compound
[9] = Table A7-2, between pharmacophore elements of the bound compound
[10] = Table A8-6, nearest protein atom in cell to the left

Chain of MASP-2 CCP2-SP (O00187 445-686): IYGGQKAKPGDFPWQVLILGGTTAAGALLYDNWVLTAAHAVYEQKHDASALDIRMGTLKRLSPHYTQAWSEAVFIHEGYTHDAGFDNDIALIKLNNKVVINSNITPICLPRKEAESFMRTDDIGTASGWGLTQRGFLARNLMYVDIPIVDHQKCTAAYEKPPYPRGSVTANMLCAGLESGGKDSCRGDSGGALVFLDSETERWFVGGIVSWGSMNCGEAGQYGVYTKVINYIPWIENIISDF
Chain of MASP-2 CCP2-SP (O00187 364-432 partner): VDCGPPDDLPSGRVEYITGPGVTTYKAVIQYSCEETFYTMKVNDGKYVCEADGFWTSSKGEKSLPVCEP
Chain of MASP-2 (CCP1-CCP2-SP) (O00187 445-686): as the sequence (O00187 445-686) above

C[C@H](NC(=O)[C@H](N)C1Cc2ccccc2C1)C(=O)NCc1ccc2nc(N)[nH]c2c1 [compound 1059]
Ki [1]: > 25 µM | H-bond distance to MASP-2 ASP 627 atom OD1 ([2]; Table A1 (H-Bonds), ASP 627 OD1): 2.99 | H-bond distance to MASP-2 ASP 627 atom OD2 ([2]; Table A1 (H-Bonds)): 2.95 | H-bond distance to MASP-2 GLN 665 atom O ([2]; Table A1 (H-Bonds), GLN 665 O): 3.31 | H-bond distance to MASP-2 GLY 656 atom N ([2]; Table A1 (H-Bonds)): 3.13 | H-bond distance to MASP-2 GLY 656 atom O ([2]; Table A1 (H-Bonds)): 2.94 | H-bond distance to MASP-2 SER 654 atom O ([2]; Table A1 (H-Bonds)): 2.95 | H-bond distance to MASP-2 SER 657 atom O ([2]; Table A1 (H-Bonds), SER 657 O): 2.77 | H-bond distance to MASP-2 SER 657 atom OG ([2]; Table A1 (H-Bonds)): 2.94 | van der Waals contact distance, MASP-2 HIS 483 atom CD2 [2]: 3.69 | van der Waals contact distance, MASP-2 TYR 607 atom CD1 ([2]; Table A2-4): 3.89 | van der Waals contact distance, MASP-2 amino acid atom to compound atom ([2]; Table A2-5: TYR 607 (CE1, CE2, OH), PRO 608 (CD, CG), SER 611 (CA)): 3.89 | van der Waals contact distance, MASP-2 amino acid atom to compound atom [2, 5]: 3.14 | van der Waals contact distance, VAL 653 CG1 to compound atom ([2]; Table A2-11): 3.81 | van der Waals contact distance TRP 655 atom CZ3 ([2]; Table A2-13, MASP-2 TRP 655 CZ3): 3.84 | van der Waals contact distance TRP 655 atom O ([2]; Table A2-13, MASP-2 TRP 655 O): 3.88 | Ligand-pharmacophore element distance, pharmacophore element C2 [2]: 1.86 | Ligand-pharmacophore element distance, pharmacophore element C3 [2]: 0 | Ligand-pharmacophore element distance, pharmacophore element C4 [2]: 0 | Ligand-pharmacophore element distance, pharmacophore element C5 [2]: 0 | Ligand-pharmacophore element distance, pharmacophore element C6 [2]: 0 | Ligand-pharmacophore element distance, pharmacophore element C7 [2]: 0 | Ligand-pharmacophore element distance, pharmacophore element CA1 [2]: 1.27 | Ligand-pharmacophore element distance, pharmacophore element CA2 [2]: 0.8 | Ligand-pharmacophore element distance, pharmacophore element CA3 [2]: 0 | Ligand-pharmacophore element distance, pharmacophore element CA4 [2]: 0 | Ligand-pharmacophore element distance, pharmacophore element CA5 [2]: 0 | Ligand-pharmacophore element distance, pharmacophore element CA6 [2]: 0 | d(CA1,N1) [2, 6]: 1.85 | d(CA1,O1) [2, 6]: 5.32 | d(CA1,O2) [2, 6]: 5.00 | d(H4,O1) [2, 6]: 4.89 | d(H4,O2) [2, 6]: 4.48 | d(O1,O2) [2, 6]: 3.20 | d(N2,C2) [2, 7]: 3.70 | d(N2,CA2) [2, 7]: 5.88 | d(O2,H3) [2, 7]: 4.97 | d(O2,N2) [2, 7]: 2.67 | a(CA1, O1, O2) ([2]; Table A6-1 pharmacophore angle): 102.43 | a(O1, O2, H4) ([2]; Table A6-1 pharmacophore angle): 140.37 | A(N1, CA1, O1) a) ([2]; Table A6-1 pharmacophore angle, all compounds with protonatable center N1 except Methyl-amino-pyridine): 176.16 | a(O1, O2, H3) ([2]; Table A6-2 pharmacophore angle): 148.70 | a(O1, O2, N2) ([2]; Table A6-2 pharmacophore angle): 132.46 | a(O2, N2, C2) ([2]; Table A6-2 pharmacophore angle): 139.14 | a(O2, N2, CA2) ([2]; Table A6-2 pharmacophore angle): 153.47 | Pharmacophore torsion angle a(H4, O1, O2, H3) [2, 8]: 47.74 | Pharmacophore torsion angle a(H4, O1, O2, N2) [2, 8]: 121.97 | Pharmacophore torsion angle a(N1, CA1, O2, H4) [2, 8]: −131.19 | Pharmacophore torsion angle a(O1, H4, O2, CA1) [2, 8]: −89.48 | Pharmacophore torsion angle a(O1, O2, N2, C2) [2, 8]: 129.30 | Pharmacophore torsion angle a(O1, O2, N2, CA2) [2, 9]: 134.69 | Pharmacophore protein distance to MET_658 (first MET_658 column) [2, 10]: 1.94 | Pharmacophore protein distance to GLY_528 [2, 10]: 3.81 | Pharmacophore protein distance to PHE_529 [2, 10]: 2.97 | Pharmacophore protein distance to PRO_608 [2, 10]: 3.70 | Pharmacophore protein distance to SER_611 [2, 10]: 2.61 | Pharmacophore protein distance to TRP_655 [2, 10]: 3.64

C[C@H](NC(=O)[C@H]1C[C@H](c2ccccc2)CN1)C(=O)NCc1ccc2c(N)nccc2c1 [compound 1090]
Ki [3]: < 0.5 µM | IC50 [4]: 0.5 to 5 µM | H-bond distance to MASP-2 ASP 627 atom OD2 ([2]; Table A1 (H-Bonds)): 2.8 | H-bond distance to MASP-2 GLY 656 atom N ([2]; Table A1 (H-Bonds)): 3.3 | H-bond distance to MASP-2 GLY 656 atom O ([2]; Table A1 (H-Bonds)): 2.78 | H-bond distance to MASP-2 SER 654 atom O ([2]; Table A1 (H-Bonds)): 2.96 | H-bond distance to MASP-2 SER 657 atom OG ([2]; Table A1 (H-Bonds)): 2.73 | van der Waals contact distance, MASP-2 HIS 483 atom CD2 [2]: 3.74 | van der Waals contact distance, MASP-2 PHE 529 atom CE1 ([2]; Table A2-3): 3.87 | van der Waals contact distance, MASP-2 amino acid atom to compound atom ([2]; Table A2-7 continued: CYS 629 (CA)): 3.89 | van der Waals contact distance, MASP-2 amino acid atom to compound atom ([2]; Table A2-8, CYS 629 / ARG 630, AA atoms CB, N, C, O, CA, CB, CD): 3.9 | van der Waals contact distance, MASP-2 amino acid atom to compound atom [2, 5]: 3.64 | van der Waals contact distance, MASP-2 amino acid atom to compound atom ([2]; Table A2-9 second part, ARG 630, AA atoms N, NE, NH1): 3.85 | van der Waals contact distance SER 657 atom C ([2]; Table A2-14, MASP-2 SER 657 C, columns c12-c13 (inferred)): 3.7 | Ligand-pharmacophore element distance, pharmacophore element C2 [2]: 0 | Ligand-pharmacophore element distance, pharmacophore element C3 [2]: 0 | Ligand-pharmacophore element distance, pharmacophore element C4 [2]: 0 | Ligand-pharmacophore element distance, pharmacophore element C5 [2]: 0 | Ligand-pharmacophore element distance, pharmacophore element C6 [2]: 0 | Ligand-pharmacophore element distance, pharmacophore element C7 [2]: 0 | Ligand-pharmacophore element distance, pharmacophore element CA1 [2]: 0.98 | Ligand-pharmacophore element distance, pharmacophore element CA2 [2]: 0 | Ligand-pharmacophore element distance, pharmacophore element CA3 [2]: 0 | Ligand-pharmacophore element distance, pharmacophore element CA4 [2]: 0 | Ligand-pharmacophore element distance, pharmacophore element CA5 [2]: 0.91 | Ligand-pharmacophore element distance, pharmacophore element CA6 [2]: 0 | d(CA1,O1) [2, 6]: 5.59 | d(CA1,O2) [2, 6]: 5.11 | d(H4,O1) [2, 6]: 3.15 | d(H4,O2) [2, 6]: 3.68 | d(O1,O2) [2, 6]: 3.38 | d(CA5,N2) [2, 7]: 5.09 | d(N2,C4)4 [2, 7]: 7.94 | d(O2,H3) [2, 7]: 5.87 | d(O2,N2) [2, 7]: 2.72 | a(CA1, O1, O2) ([2]; Table A6-1 pharmacophore angle): 100.34 | a(O1, O2, H4) ([2]; Table A6-1 pharmacophore angle): 121.29 | a(O1, O2, H3) ([2]; Table A6-2 pharmacophore angle): 152.05 | a(O1, O2, N2) ([2]; Table A6-2 pharmacophore angle): 140.84 | Pharmacophore torsion angle a(H4, O1, O2, H3) [2, 8]: 91.31 | Pharmacophore torsion angle a(H4, O1, O2, N2) [2, 8]: −177.46 | Pharmacophore torsion angle a(O1, H4, O2, CA1) [2, 8]: −92.71 | Pharmacophore torsion angle a(O1, O2, N2, CA5) [2, 9]: 134.91 | Pharmacophore protein distance to MET_658 (first MET_658 column) [2, 10]: 2.69 | Pharmacophore protein distance to MET_658 (second MET_658 column) ([2]; Table A8-6, 9th residue column, nearest protein atom in cell to the left): 2.71 | Pharmacophore protein distance to GLY_528 [2, 10]: 3.61 | Pharmacophore protein distance to PHE_529 [2, 10]: 2.77 | Pharmacophore protein distance to PRO_608 [2, 10]: 3.95 | Pharmacophore protein distance to SER_611 [2, 10]: 2.87 | Pharmacophore protein distance to TRP_655 [2, 10]: 3.50

Cc1ccc(-c2c[nH]c(C(=O)N[C@@H](C)C(=O)NCc3ccc(C(=N)N)cc3)c2)cc1F [compound 1235, (S)—N-(1-((4-Carbamimidoylbenzyl)amino)-1-oxopropan-2-yl)-4-(3-fluoro-4-methylphenyl)-1H-pyrrole-2-carboxamide]
Ki [1]: 10 to 25 µM
